Activity calls are given as the source filed them. No cut-off for these calls is given here.
Legend:
Huh-7 [1] = assay: Cytotoxicity against human HuH7 cells assessed as cell survival at 50 uM after 48 hrs by Hoechst 33342 staining based assay relative to control; type: functional; conditions: Huh-7, 48 h, read-out: Survival
MDA-MB-231 [2] = assay: Cytotoxicity against human MDA-MB-231 cells assessed as cell survival at 50 uM after 48 hrs by Hoechst 33342 staining based assay relative to control; type: functional; conditions: MDA-MB-231, 48 h, read-out: Survival
[3] = Cytotoxicity against human fibroblasts assessed as cell survival at 50 uM after 48 hrs by Hoechst 33342 staining based assay relative to control; set-up: species or system Fibroblast; conditions: read-out: Survival
Huh-7 [4] = assay: Cytotoxicity against human HuH7 cells assessed as cell viability after 48 hrs by Hoechst 33342 staining based assay; type: functional; conditions: Huh-7, 48 h
Caco-2 [5] = assay: Cytotoxicity against human Caco2 cells assessed as cell viability after 48 hrs by Hoechst 33342 staining based assay; type: functional; conditions: Caco-2, 48 h
PC-3 [6] = assay: Cytotoxicity against human PC3 cells assessed as cell viability after 48 hrs by Hoechst 33342 staining based assay; type: functional; conditions: PC-3, 48 h
NCI-H727 [7] = assay: Cytotoxicity against human NCI-H727 cells assessed as cell viability after 48 hrs by Hoechst 33342 staining based assay; type: functional; conditions: NCI-H727, 48 h
HaCaT [8] = assay: Cytotoxicity against human HaCaT cells assessed as cell viability after 48 hrs by Hoechst 33342 staining based assay; type: functional
Fibroblast = assay: Cytotoxicity against human fibroblasts assessed as cell viability after 48 hrs by Hoechst 33342 staining based assay
RL = assay: Cytotoxicity against human RL assessed as cell viability after 48 hrs by Hoechst 33342 staining based assay; type: functional
[9] = Selectivity index, ratio of IC50 for human fibroblasts to IC50 for human Caco2 cells
[10] = Selectivity index, ratio of IC50 for human fibroblasts to IC50 for human HCT116 cells
[11] = Selectivity index, ratio of IC50 for human fibroblasts to IC50 for human NCI-H727 cells
[12] = Selectivity index, ratio of IC50 for human fibroblasts to IC50 for human HaCaT cells
[13] = Selectivity index, ratio of IC50 for human fibroblasts to IC50 for human RL cells
HCT-116 [14] = assay: Induction of apoptosis in human HCT116 cells harboring wild-type p53 assessed as increase in early apoptosis at 2 times IC50 after 48 hrs by YoPro/propidium iodide/Hoechst staining based assay; type: functional, cell-based
MDA-MB-231 [15] = assay: Induction of apoptosis in human MDA-MB-231 cells harboring p53 mutant assessed as increase in early apoptosis at 2 times IC50 after 24 hrs by YoPro/propidium iodide/Hoechst staining based assay; type: functional, cell-based
MCF7 [16] = assay: Induction of apoptosis in human MCF7 cells harboring wild-type p53 assessed as increase in late apoptosis at 2 times IC50 after 24 hrs by YoPro/propidium iodide/Hoechst staining based assay; type: functional, cell-based
HCT-116 [17] = assay: Induction of apoptosis in human HCT116 cells harboring wild-type p53 assessed as increase in cleaved caspase3 at 2 times IC50 after 48 hrs by Hoechst staining based assay; type: functional, cell-based
PC-3 [18] = assay: Induction of apoptosis in human PC3 cells harboring p53 mutant assessed as increase in cleaved caspase3 at 2 times IC50 after 48 hrs by Hoechst staining based assay; type: functional, cell-based
MDA-MB-231 [19] = assay: Induction of apoptosis in human MDA-MB-231 cells harboring p53 mutant assessed as increase in cleaved caspase3 at 2 times IC50 after 24 hrs by Hoechst staining based assay; type: functional, cell-based
Huh-7 [20] = assay: Cell cycle arrest in human HuH7 cells assessed as mitotic index at 10 uM measured after 48 hrs by Hoechst staining based fluorescence assay (reference value: 2.2); type: functional
Huh-7 [21] = assay: Cell cycle arrest in human HuH7 cells assessed as accumulation at S phase at 10 uM measured after 48 hrs by Hoechst/BrdU staining based fluorescence assay (reference value: 44%); type: functional
Caco-2 [22] = assay: Cell cycle arrest in human Caco2 cells assessed as accumulation at S phase at 10 uM measured after 48 hrs by Hoechst/BrdU staining based fluorescence assay (reference value: […]); type: functional
MDA-MB-231 [23] = assay: Cell cycle arrest in human MDA-MB-231 cells harboring p53 mutant assessed as mitotic index at 10 uM measured after 48 hrs by Hoechst staining based fluorescence assay (reference value: 2.1); type: functional
MDA-MB-231 [24] = assay: Cell cycle arrest in human MDA-MB-231 cells harboring p53 mutant assessed as accumulation at S phase at 10 uM measured after 48 hrs by Hoechst/BrdU staining based fluorescence assay (reference value: 42.2%); type: functional
HCT-116 [25] = assay: Cell cycle arrest in human HCT116 cells harboring wild-type p53 assessed as mitotic index at 10 uM measured after 48 hrs by Hoechst staining based fluorescence assay (reference value: 2.3); type: functional
PC-3 [26] = assay: Cell cycle arrest in human PC3 cells harboring p53 mutant assessed as mitotic index at 10 uM measured after 48 hrs by Hoechst staining based fluorescence assay (reference value: 2.5); type: functional
NCI-H727 [27] = assay: Cell cycle arrest in human NCI-H727 cells harboring p53 mutant assessed as accumulation at S phase at 10 uM measured after 48 hrs by Hoechst/BrdU staining based fluorescence assay (reference value: 40.3%); type: functional
HaCaT [28] = assay: Cell cycle arrest in human HaCaT cells harboring […] p53 assessed as mitotic index at 10 uM measured after 48 hrs by Hoechst staining based fluorescence assay (reference value: 2.6); type: functional
Huh-7 [29] = assay: Cell cycle arrest in human HuH7 cells assessed as mitotic index at 25 uM measured after 48 hrs by Hoechst staining based fluorescence assay (reference value: 2.2); type: functional
HCT-116 [30] = assay: Cell cycle arrest in human HCT116 cells harboring wild-type p53 assessed as mitotic index at 25 uM measured after 48 hrs by Hoechst staining based fluorescence assay (reference value: 2.3); type: functional
HCT-116 [31] = assay: Cell cycle arrest in human HCT116 cells harboring wild-type p53 assessed as accumulation at S phase at 25 uM measured after 48 hrs by Hoechst/BrdU staining based fluorescence assay (reference value: 68.4%); type: functional
NCI-H727 [32] = assay: Cell cycle arrest in human NCI-H727 cells harboring p53 mutant assessed as accumulation at S phase at 25 uM measured after 48 hrs by Hoechst/BrdU staining based fluorescence assay (reference value: 40.3%); type: functional
Caco-2 [33] = assay: Cell cycle arrest in human Caco2 cells assessed as accumulation at M phase by Hoechst staining based fluorescence assay; type: functional
HCT-116 [34] = assay: Cell cycle arrest in human HCT116 cells assessed as accumulation at G1/S phase by Hoechst staining based fluorescence assay; type: functional
HCT-116 [35] = assay: Induction of apoptosis in human HCT116 cells harboring wild-type p53 assessed as upregulation of p21 measured after 48 hrs by Hoechst staining based fluorescence assay; type: functional, cell-based
MCF7 [36] = assay: Induction of apoptosis in human MCF7 cells harboring wild-type p53 assessed as upregulation of p21 measured after 48 hrs by Hoechst staining based fluorescence assay; type: functional, cell-based
PC-3 [37] = assay: Induction of apoptosis in human PC3 cells harboring p53 mutant assessed as upregulation of cyclinB1 after 48 hrs by Hoechst staining based assay; type: functional, cell-based

SMILES	viability at 50 µM (Huh-7 [1])	viability at 50 µM (MDA-MB-231 [2])	viability at 48 h, 50 µM [3]	IC50 (Huh-7 [4])	IC50 (Caco-2 [5])	IC50 (PC-3 [6])	IC50 (NCI-H727 [7])	IC50 (HaCaT [8])	IC50 (Fibroblast)	IC50 (RL)	Ratio IC50 [9]	Ratio IC50 [10]	Ratio IC50 [13]	Activity (HCT-116 [14])	Activity (MCF7 [16])	Activity (HCT-116 [17])	Activity (PC-3 [18])	Activity (Huh-7 [21])	Activity (Caco-2 [22])	Activity (MDA-MB-231 [24])	further results
COc1cc(OC)c(C(=O)/C=C/c2ccc(F)cc2)c(OC)c1	8%	12%	78%	14.6 µM	5.5 µM	5.5 µM	5.5 µM	7.6 µM	> 20 µM	6.4 µM	>9.1	>8.1	>7.8	Active	Active	Active	Active	44%	39%	43%	Ratio IC50 [11]: >9.1; Ratio IC50 [12]: >6.6; Activity (MDA-MB-231 [15]): Active; Activity (MDA-MB-231 [19]): Active; Activity_index (Huh-7 [20]): 4.7; Activity_index (MDA-MB-231 [23]): 22; Activity_index (HCT-116 [25]): 1.3; Activity_index (PC-3 [26]): 14.6; Activity (NCI-H727 [27]): 31%; Activity_index (HaCaT [28]): 10.7; Activity_index (Huh-7 [29]): 1.3; Activity_index (HCT-116 [30]): 0.4; Activity (HCT-116 [31]): 0.7%; Activity (NCI-H727 [32]): 4.5%; Activity (Caco-2 [33]): Active; Activity (HCT-116 [34]): Active; Activity (HCT-116 [35]): Active; Activity (MCF7 [36]): Active; Activity (PC-3 [37]): Active
COc1cc(O)c(C(=O)/C=C/c2ccc(F)cc2)c(OC)c1	66%	69%	> 80%	> 20 µM	9.2 µM	13.2 µM	> 20 µM	> 20 µM	> 20 µM	5.4 µM	>5.4	>4	>5.4	Active	Active	Active	Active	inactive	49%	inactive	Activity (Huh-7 [20]): inactive; Activity (MDA-MB-231 [23]): inactive; Activity_index (HCT-116 [25]): 1.2; Activity_index (PC-3 [26]): 2.9; Activity (NCI-H727 [27]): inactive; Activity (HaCaT [28]): inactive; Activity (Huh-7 [29]): inactive; Activity_index (HCT-116 [30]): 0.7; Activity (HCT-116 [31]): 28%; Activity (NCI-H727 [32]): inactive; Activity (Caco-2 [33]): Active; Activity (HCT-116 [34]): Active; Activity (HCT-116 [35]): Active; Activity (MCF7 [36]): Active; Activity (PC-3 [37]): Active
COc1cc(OC)c(C(=O)/C=C/c2ccccc2)c(OC)c1	6%	13%	74%	15.5 µM	5.8 µM	5.1 µM	11.4 µM	7.2 µM	> 20 µM	6.9 µM	>8.6	>7.2	>7.2	Active	Active	Active	Active	45%	38%	37%	Ratio IC50 [11]: >4.4; Ratio IC50 [12]: >6.9; Activity (MDA-MB-231 [15]): Active; Activity (MDA-MB-231 [19]): Active; Activity_index (Huh-7 [20]): 8.5; Activity_index (MDA-MB-231 [23]): 21; Activity_index (HCT-116 [25]): 2; Activity_index (PC-3 [26]): 18; Activity (NCI-H727 [27]): 34%; Activity_index (HaCaT [28]): 18.3; Activity_index (Huh-7 [29]): 0.6; Activity_index (HCT-116 [30]): 0.8; Activity (HCT-116 [31]): 2.6%; Activity (NCI-H727 [32]): 4.5%; Activity (Caco-2 [33]): Active; Activity (HCT-116 [34]): Active; Activity (HCT-116 [35]): Active; Activity (MCF7 [36]): Active; Activity (PC-3 [37]): Active
COc1cc(O)c(C(=O)/C=C/c2ccccc2SC)c(OC)c1	38%	39%	65%	16.6 µM	9.6 µM	8.7 µM	9 µM	10.5 µM	> 20 µM	8.9 µM	3.8	3.6	4.1	Active	Active	Active	Active	50%	50%	inactive	Ratio IC50 [11]: 4; Ratio IC50 [12]: 3.4; Activity_index (Huh-7 [20]): 2.3; Activity (MDA-MB-231 [23]): inactive; Activity_index (HCT-116 [25]): 0.8; Activity_index (PC-3 [26]): 4.4; Activity (NCI-H727 [27]): 43%; Activity_index (HaCaT [28]): 3.1; Activity_index (Huh-7 [29]): 5.3; Activity_index (HCT-116 [30]): 1.3; Activity (HCT-116 [31]): 28%; Activity (NCI-H727 [32]): 12%; Activity (Caco-2 [33]): Active; Activity (HCT-116 [34]): Active; Activity (HCT-116 [35]): Active; Activity (MCF7 [36]): Active; Activity (PC-3 [37]): Active
COc1cc(O)c(C(=O)/C=C/c2ccccc2OC)c(OC)c1	39%	37%	71%	> 20 µM	10 µM	9.6 µM	11 µM	10.9 µM	> 20 µM	10.1 µM	3.6	4	3.6	Active	Active	Active	Active	inactive	46%	inactive	Ratio IC50 [11]: 3.3; Ratio IC50 [12]: 3.3; Activity (Huh-7 [20]): inactive; Activity (MDA-MB-231 [23]): inactive; Activity_index (HCT-116 [25]): 1.2; Activity_index (PC-3 [26]): 2.9; Activity (NCI-H727 [27]): 43%; Activity_index (HaCaT [28]): 3.1; Activity (Huh-7 [29]): inactive; Activity_index (HCT-116 [30]): 1.8; Activity (HCT-116 [31]): 27%; Activity (NCI-H727 [32]): 14%; Activity (Caco-2 [33]): Active; Activity (HCT-116 [34]): Active; Activity (HCT-116 [35]): Active; Activity (MCF7 [36]): Active; Activity (PC-3 [37]): Active

From ChEMBL document CHEMBL3992552, “Mechanisms of action and structure-activity relationships of cytotoxic flavokawain derivatives” (Bioorg Med Chem, 2017)
